Test results reported in the supplement of paper PMC4862054.

Tests used:
MDA-MB-231 [1] = settings: 72 h
Method in brief: (§1)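 In this assay, breast cancer cell lines spent 72 h with compound at 5 concentrations in 10-fold steps over a compound-specific 10,000-fold range. The first readout was cell death by CellTox Green fluorescence, and the second was viability by CellTiter-Glo luminescence, each normalised per plate to 0.1 % DMSO and a positive kill control. EC50 came from the dose-response curves, censored at the top concentration.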

MDA-MB-436 [2] = settings: 72 h
Method in brief: as §1

BT-549 [3] = settings: 72 h
Method in brief: as §1

MFM-223 [4] = settings: 72 h
Method in brief: as §1

SK-BR-3 = settings: 72 h
Method in brief: as §1

MDA-MB-468 [5] = settings: 72 h
Method in brief: as §1

CAL-120 [6] = settings: 72 h
Method in brief: as §1

HCC1143 [7] = settings: 72 h
Method in brief: as §1

CAL-51 [8] = settings: 72 h
Method in brief: as §1

BT-474 [9] = settings: 72 h
Method in brief: as §1

MCF-10A [10] = settings: 72 h
Method in brief: as §1

DU-4475 [11] = settings: 72 h
Method in brief: as §1

MDA-MB-231 [12] = experiment: drug sensitivity score (DSS), CellTox Green (DSS (AUC-based score)); higher = stronger drug effect (viability inhibition or cytotoxicity); extreme values may be limits of the assay; settings: incubation time: 72 h
Method in brief: (§2)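 After 72 h of incubation in 384-well plates with compound at 5 concentrations (10-fold steps, 10,000-fold range set per compound), breast cancer cell lines seeded in 20 µl suspension were read first for CellTox Green fluorescence at 485/520 nm. CellTiter-Glo luminescence was measured next, after 10 min at room temperature. Normalisation on each plate used 0.1 % DMSO and a positive kill control, and the drug sensitivity score was computed from the area under the fitted dose-response curve.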

MDA-MB-436 [13] = experiment: as above; settings: incubation time: 72 h
Method in brief: as §2

HCC1599 = experiment: as above; settings: incubation time: 72 h
Method in brief: as §2

BT-549 [14] = experiment: as above; settings: incubation time: 72 h
Method in brief: as §2

MDA-MB-453 [15] = experiment: as above; settings: incubation time: 72 h
Method in brief: as §2

MFM-223 [16] = experiment: as above; settings: incubation time: 72 h
Method in brief: as §2

CAL-148 [17] = experiment: as above; settings: incubation time: 72 h
Method in brief: as §2

CAL-85-1 [18] = experiment: as above; settings: incubation time: 72 h
Method in brief: as §2

MDA-MB-468 [19] = experiment: as above; settings: incubation time: 72 h
Method in brief: as §2

CAL-120 [20] = experiment: as above; settings: incubation time: 72 h
Method in brief: as §2

HCC1143 [21] = experiment: as above; settings: incubation time: 72 h
Method in brief: as §2

CAL-51 [22] = experiment: as above; settings: incubation time: 72 h
Method in brief: as §2

BT-474 [23] = experiment: as above; settings: incubation time: 72 h
Method in brief: as §2

MCF-10A [24] = experiment: as above; settings: incubation time: 72 h
Method in brief: as §2

Hs578T = experiment: as above; settings: incubation time: 72 h
Method in brief: as §2

HDQ-P1 [25] = experiment: as above; settings: incubation time: 72 h
Method in brief: as §2

DU-4475 [26] = experiment: as above; settings: incubation time: 72 h
Method in brief: as §2

HCC1937 = experiment: as above; settings: incubation time: 72 h
Method in brief: as §2

MDA-MB-453 [27] = settings: 72 h
Method in brief: (§3)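 Breast cancer cell lines in 20 µl suspension were seeded onto 384-well plates pre-loaded with compound dissolved in 5 µl medium, then incubated 72 h. For viability, 2.5 µl CellTiter-Blue was added for 2 h at 37 °C and fluorescence read at 560/590 nm. Each plate was normalised to vehicle and a positive kill control and checked by Z'-factor. EC50 comes from the fitted percent-inhibition dose-response curve, censored at the highest concentration; rows with zero drug sensitivity score were dropped.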

CAL-148 [28] = settings: 72 h
Method in brief: as §3

CAL-85-1 [29] = settings: 72 h
Method in brief: as §3

CAL-51 [30] = settings: 72 h; remark: listed apart in the source
Method in brief: as §3

HDQ-P1 [31] = settings: 72 h
Method in brief: as §3

DU-4475 [32] = settings: 72 h; remark: listed apart in the source
Method in brief: as §3

EC50, CellTiter-Glo (MDA-MB-231 [1]) [nM] | EC50, CellTiter-Glo (MDA-MB-436 [2]) [nM] | EC50, CellTiter-Glo (BT-549 [3]) [nM] | EC50, CellTiter-Glo (SK-BR-3) [nM] | EC50, CellTiter-Glo (MDA-MB-468 [5]) [nM] | EC50, CellTiter-Glo (HCC1143 [7]) [nM] | EC50, CellTiter-Glo (BT-474 [9]) [nM] | EC50, CellTiter-Blue viability (MDA-MB-453 [27]) [nM] | SMILES | EC50, CellTiter-Glo (MFM-223 [4]) [nM] | EC50, CellTiter-Glo (CAL-120 [6]) [nM] | EC50, CellTiter-Glo (CAL-51 [8]) [nM] | EC50, CellTiter-Glo (MCF-10A [10]) [nM] | EC50, CellTiter-Glo (DU-4475 [11]) [nM] | drug sensitivity score (MDA-MB-231 [12]) | drug sensitivity score (MDA-MB-436 [13]) | drug sensitivity score (HCC1599) | drug sensitivity score (BT-549 [14]) | drug sensitivity score (MDA-MB-453 [15]) | drug sensitivity score (MFM-223 [16]) | drug sensitivity score (CAL-148 [17]) | drug sensitivity score (CAL-85-1 [18]) | drug sensitivity score (MDA-MB-468 [19]) | drug sensitivity score (CAL-120 [20]) | drug sensitivity score (HCC1143 [21]) | drug sensitivity score (CAL-51 [22]) | drug sensitivity score (BT-474 [23]) | drug sensitivity score (MCF-10A [24]) | drug sensitivity score (Hs578T) | drug sensitivity score (HDQ-P1 [25]) | drug sensitivity score (DU-4475 [26]) | drug sensitivity score (HCC1937) | EC50, CellTiter-Blue viability (CAL-148 [28]) [nM] | EC50, CellTiter-Blue viability (CAL-85-1 [29]) [nM] | EC50, CellTiter-Blue viability (CAL-51 [30]) [nM] | EC50, CellTiter-Blue viability (HDQ-P1 [31]) [nM] | EC50, CellTiter-Blue viability (DU-4475 [32]) [nM]
580 | 501 | 412 | 130 | 894 | 591 | 375 | 98.9 | Cc1c(CN2CCN(C(=O)[C@H](C)O)CC2)sc2c(N3CCOCC3)nc(-c3cnc(N)nc3)nc12 [GDC-0980] | 362 | 618 | 423 | 486 | 2480 | 0 | 0 | 0 | 0 | 0 | 6 | 6.07 | 2.26 | 0 | 0 | 3.43 | 6.08 | 4.57 | 0 | 0 | 1.58 | 0 | 0 | 306 | 347 | 198 | 139 | 734
2720 | 4130 | 1060 | 1660 | 1840 | 2250 | 2920 | 588 | Nc1ccccc1NC(=O)c1ccc(CNc2nccc(-c3cccnc3)n2)cc1 [Mocetinostat] | 4850 | 1600 | 1650 | 5300 | 1570 | 8.8 | 10.1 | 1.87 | 1.91 | 0 | 0 | 2.32 | 7.11 | 10.9 | 3.91 | 0.874 | 8.87 | 2.44 | 0 | 7.44 | 14.5 | 0 | 0.396 | 1790 | 1530 | 3050 | 9490 | 757
189 | 181 | 186 | 23.8 | 208 | 258 | 162 | 72.8 | COc1ccc(-c2cc3c(C)nc(N)nc3n([C@H]3CC[C@H](OCCO)CC3)c2=O)cn1 | 261 | 123 | 105 | 122 | 756 | 14.1 | 0 | 0 | 5.99 | 0 | 0 | 12.3 | 4.01 | 0 | 0 | 0 | 12.5 | 11.5 | 0 | 2 | 6.58 | 0 | 1.39 | 246 | 301 | 140 | 66.9 | 610
